Results on nine compounds are retold here after patent US8541418B2, “Inhibitors of polo-like kinase” (Elan Pharmaceutical, Inc., priority 2009, dated 2013).

Common to all, as to type: biochemical
The target of one assay is PLK1 (Homo sapiens, UniProt P53350). The assay is described as follows: PLK TR-FRET peptide assay, PLK1. Particulars: GST-PLK1, 60 min reaction.
Another assay has as its target PLK2 (Homo sapiens, UniProt Q9NYY3). Description: PLK TR-FRET peptide assay, PLK2. To be noted: PLK TR-FRET peptide assay, GST-PLK2, 60 min reaction; read-out: Plk2 IC50. (In general: Time-resolved FRET reads energy transfer from a long-lived donor to a nearby acceptor.)
The target of a further assay is PLK3 (Homo sapiens, UniProt Q9H4B4). Description: PLK TR-FRET peptide assay, PLK3. Particulars: GST-PLK3, 15 min reaction, read-out: Plk3 IC50.
PLK3, sequence (Q9H4B4 whole entry): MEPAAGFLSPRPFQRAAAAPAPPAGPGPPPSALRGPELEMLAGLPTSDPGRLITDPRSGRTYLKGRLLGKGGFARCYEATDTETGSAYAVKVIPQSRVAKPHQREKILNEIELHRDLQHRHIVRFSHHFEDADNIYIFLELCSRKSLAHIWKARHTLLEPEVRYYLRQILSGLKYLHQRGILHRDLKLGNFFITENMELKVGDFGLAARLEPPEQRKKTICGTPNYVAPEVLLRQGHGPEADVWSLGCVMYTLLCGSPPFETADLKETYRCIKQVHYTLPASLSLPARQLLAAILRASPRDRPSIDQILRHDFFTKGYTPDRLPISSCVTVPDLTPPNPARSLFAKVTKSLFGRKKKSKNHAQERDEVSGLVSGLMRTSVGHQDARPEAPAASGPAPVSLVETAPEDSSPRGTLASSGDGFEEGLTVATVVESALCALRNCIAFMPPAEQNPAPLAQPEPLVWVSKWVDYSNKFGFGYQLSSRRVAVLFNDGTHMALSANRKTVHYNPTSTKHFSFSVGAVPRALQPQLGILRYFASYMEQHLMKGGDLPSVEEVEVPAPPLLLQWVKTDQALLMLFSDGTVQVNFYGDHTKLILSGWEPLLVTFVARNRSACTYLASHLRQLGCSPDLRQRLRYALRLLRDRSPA

Some results are limits rather than exact numbers.

PLK1, sequence (P53350 whole entry): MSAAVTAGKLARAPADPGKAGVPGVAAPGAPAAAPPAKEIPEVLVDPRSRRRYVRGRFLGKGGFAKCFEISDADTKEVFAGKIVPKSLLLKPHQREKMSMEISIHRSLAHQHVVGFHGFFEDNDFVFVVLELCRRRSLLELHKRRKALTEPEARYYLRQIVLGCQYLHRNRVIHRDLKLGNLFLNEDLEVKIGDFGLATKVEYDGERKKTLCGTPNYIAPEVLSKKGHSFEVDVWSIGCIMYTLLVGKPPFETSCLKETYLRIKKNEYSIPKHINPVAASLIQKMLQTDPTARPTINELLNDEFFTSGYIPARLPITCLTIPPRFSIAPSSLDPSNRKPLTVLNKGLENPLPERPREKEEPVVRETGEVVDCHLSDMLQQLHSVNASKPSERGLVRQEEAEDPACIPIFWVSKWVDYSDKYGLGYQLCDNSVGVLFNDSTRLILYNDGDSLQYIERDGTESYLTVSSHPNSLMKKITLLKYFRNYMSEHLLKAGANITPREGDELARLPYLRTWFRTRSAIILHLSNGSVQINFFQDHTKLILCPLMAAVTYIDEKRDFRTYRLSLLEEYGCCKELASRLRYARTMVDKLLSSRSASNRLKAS
PLK2, sequence (Q9NYY3 whole entry): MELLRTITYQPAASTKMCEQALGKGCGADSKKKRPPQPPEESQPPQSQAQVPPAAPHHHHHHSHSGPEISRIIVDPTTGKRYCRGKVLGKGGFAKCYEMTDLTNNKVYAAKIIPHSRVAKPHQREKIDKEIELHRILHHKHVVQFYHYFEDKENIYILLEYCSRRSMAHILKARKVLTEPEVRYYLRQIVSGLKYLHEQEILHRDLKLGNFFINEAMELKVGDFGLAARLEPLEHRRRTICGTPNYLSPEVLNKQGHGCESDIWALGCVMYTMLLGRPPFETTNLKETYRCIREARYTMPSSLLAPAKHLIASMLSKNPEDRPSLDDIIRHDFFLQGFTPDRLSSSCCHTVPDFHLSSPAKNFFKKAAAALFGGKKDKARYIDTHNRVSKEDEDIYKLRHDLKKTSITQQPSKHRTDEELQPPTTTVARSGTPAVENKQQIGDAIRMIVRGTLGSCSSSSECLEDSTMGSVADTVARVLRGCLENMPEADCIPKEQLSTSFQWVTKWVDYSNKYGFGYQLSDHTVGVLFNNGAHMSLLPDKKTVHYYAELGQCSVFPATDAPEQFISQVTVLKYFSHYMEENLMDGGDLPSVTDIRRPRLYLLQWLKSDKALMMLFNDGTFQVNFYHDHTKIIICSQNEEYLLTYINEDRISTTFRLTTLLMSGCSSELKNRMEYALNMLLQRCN

Consider `CC[C@@H]1C(=O)N(C)c2cnc(-n3ccnc3-c3ccc(F)c(F)c3)nc2N1C1CCC(F)(F)C1` (stereo partly drawn) [Example 237, (7R)-8-(3,3-difluorocyclopentyl)-2-(2-(3,4-difluorophenyl)-1H-imidazol-1-yl)-7-ethyl-5-methyl-7,8-dihydropteridin-6(5H)-one], for which the IC50 is less than 1 µM against PLK1, less than 1 µM on PLK2 and 1 to 10 µM on PLK3.
Consider `CC[C@@H]1C(=O)N(C)c2cnc(-n3ccnc3-c3ccc(F)c(Cl)c3)nc2N1C1CCOC1` (stereo partly drawn) [Example 232, (7R)-2-(2-(3-chloro-4-fluorophenyl)-1H-imidazol-1-yl)-7-ethyl-5-methyl-8-(tetrahydrofuran-3-yl)-7,8-dihydropteridin-6(5H)-one], for which the IC50 at PLK1 was 1 to 10 µM; on PLK2, less than 1 µM; at PLK3, 1 to 10 µM.
`CC[C@@H]1C(=O)N(C)c2cnc(-c3ccncc3NC(=O)CC(C)(C)C)nc2N1C1CCCC1` [Example 108, (R)—N-(4-(8-cyclopentyl-7-ethyl-5-methyl-6-oxo-5,6,7,8-tetrahydropteridin-2-yl)pyridin-3-yl)-3,3-dimethylbutanamide]: the figures for the IC50 at PLK1, on PLK2 and at PLK3 were 10 to 50 µM, 10 to 50 µM and more than 50 µM, respectively.
As for `CC[C@@H]1C(=O)N(C)c2cnc(-c3c[nH]nc3-c3ccc(C(F)(F)F)cc3)nc2N1C(C)C` [Example 167, (R)-7-ethyl-8-isopropyl-5-methyl-2-(3-(4-(trifluoromethyl)phenyl)-1H-pyrazol-4-yl)-7,8-dihydropteridin-6(5H)-one], the results for the IC50 against PLK1, on PLK2 and at PLK3 were 1 to 10 µM, less than 1 µM and 10 to 50 µM, respectively.
The like results for `CC[C@@]12CCCN1c1nc(-n3ccnc3)ncc1N(C)C2=O` [Example 285, (S)-6a-ethyl-2-(1H-imidazol-1-yl)-5-methyl-6a,7,8,9-tetrahydropyrrolo[2,1-h]pteridin-6(5H)-one] were, in that order, more than 50 µM, 10 to 50 µM and more than 50 µM.
The like results for `CC[C@]12CCCCN1c1nc(-n3ccnc3-c3cccc(F)c3F)ncc1N(C)C2=O` [Example 261, (R)-2-(2-(2,3-difluorophenyl)-1H-imidazol-1-yl)-6a-ethyl-5-methyl-7,8,9,10-tetrahydro-5H-pyrido[2,1-h]pteridin-6(6aH)-one] were, in that order, more than 50 µM, 1 to 10 µM and more than 50 µM.
Consider `CC[C@@H]1C(=O)N(C)c2cnc(N3CCN(C)CC3)nc2N1C1CCCC1` [Example 210, (R)-8-cyclopentyl-7-ethyl-5-methyl-2-(4-methylpiperazin-1-yl)-7,8-dihydropteridin-6(5H)-one], for which the IC50 against PLK1, at PLK2 and on PLK3 was more than 50 µM each time.
With `CC[C@@]12CCCN1c1nc(-n3ccnc3-c3cccc(Cl)c3)ncc1N(C)C2=O` [Example 236, (S)-2-(2-(3-chlorophenyl)-1H-imidazol-1-yl)-6a-ethyl-5-methyl-6a,7,8,9-tetrahydropyrrolo[2,1-h]pteridin-6(5H)-one], the IC50 on PLK1 was 1 to 10 µM; on PLK2 it was less than 1 µM; at PLK3, 10 to 50 µM.
`[2H]C([2H])([2H])N1C(=O)C(C([2H])([2H])C([2H])([2H])[2H])N(C([2H])(C([2H])([2H])[2H])C([2H])([2H])[2H])c2nc(-n3ccnc3-c3cc(F)cc(F)c3)ncc21` (racemic) [Example 163, 2-(2-(3,5-difluorophenyl)-1H-imidazol-1-yl)-7-perdeuteroethyl-8-perdeuteroisopropyl-5-trideuteromethyl-7,8-dihydropteridin-6(5H)-one]: the figures for the IC50 against PLK1, at PLK2 and at PLK3 were less than 1 µM, less than 1 µM and 10 to 50 µM, respectively.

Broadly, the IC50 is the concentration that gives 50% inhibition.
